Measured values taken from patent publication US20210386721A1, “SUBSTITUTED PHENYLPROPENYL PYRIDINE DERIVATIVES, THEIR PREPARATION AND PHARMACEUTICAL APPLICATIONS” (SHANGHAI HAIYAN PHARMACEUTICAL TECHNOLOGY CO., LTD., priority 2019, published 2021).

What was measured:
[1] = target: T1, PD-1/PD-L1 (Homo sapiens, UniProt Q9NZQ7); experiment: PD-1/PD-L1 binding assay (HTRF, PPI-HTRF); conditions: HTRF PD1/PD-L1 binding assay kit; 10 nM Tag1-PD-L1; 25° C.
T1 construct: purchased Cisbio 63ADK000CPDPEB
Protocol: Assay 1 PD-1/PD-L1 Binding Assay
DMSO is from Sigma, Cat No: D5879; 384-well small volume plate (white) is from Greiner, Cat No: 784075; Anti-PD1 blocking antibody (IC50: 10 nM) is from Cisbio, Cat No: 64CUS000C-1a; Anti-PDL1 blocking antibody (IC50: 0.3 nM) is from Cisbio, Cat No: 64CUS000C-1b; HTRF PD1/PD-L1 binding assay kit is from Cisbio, Cat No: 63ADK000CPDPEB.
1. Prepare the compound to be tested at 2x concentration into 1× reaction buffer containing 4% DMSO;
2. Tag1-PD-L1 protein and Tag2-PD1 protein were prepared in 1× reaction buffer at concentrations of […] and 10 nM, respectively. The final reaction concentration of the experiment was 10 nM Tag1-PD-L1 and 2 nM […];
3. anti-Tag1-Eu3+ antibody is prepared in 1x concentration detection buffer at a ratio of 1:100;
4. anti-Tag2-XL665 antibody is prepared in 1x concentration detection buffer at a ratio of 1:25; Experimental steps
1. 5 μL of compounds to be tested (2×) was added;
2. 2.5 ul Tag1-PD-L1 protein and 2.5 ul Tag2-PD1 protein were added respectively, and the total reaction system is 10 ul, and reacted at 25° C. for 15 minutes;
3. 5 ul anti-Tag1-Eu3+ antibody and 5 ul anti-Tag2-XL665 antibody were added respectively, and reacted at 25° C. for 16 hours;
4. The fluorescence microplate reader HTRF reading program was used to read two readings at 665 nm and 620 nm, the ratio of the two wavelengths was used to judge the activity of the compound, and the IC50 of the compound to be tested is calculated by XLFIT5.0 (IDBS).

[2] = system: Jurkat T(PD1 Luc-)/CHOK1(PDL-1); experiment: Jurkat T(PD1 Luc-)/CHOK1(PDL-1) cell experiment (luciferase reporter); type: cell-based; conditions: CHO/PD-L1-OKT3 cells co-cultured with Jurkat/PD1-NFAT-Luc cells for 6 hours; Bio-Glo luciferase signal
Protocol: Assay 2 Jurkat T(PD1 Luc-)/CHOK1(PDL-1) Cell Experiment
G418, Sangon Biotech #A100859-0001, Cat Number G108BA0003, 5 ml of deionized water being added into each bottle, store at 4° C.
CHO/PD-L1-OKT3 cells (constructed by referring to Promega's PD-1/PD-L1 Blockade Bioassays system) cultured in F-12K medium (containing 10% FBS, 800 ug/ml G418, 400 ug/ml D Hygromycin B) were planted into a 96-well plate at 2×10^4 per well, and incubated for 24 hours at 37° C. and 5% CO2. part of the medium was removed, and the test compound dissolved in DMSO with a final concentration of 1 uM was added, and DMSO at the same concentration was added into the control cells. Jurkat/PD1-NFAT-Luc cells (constructed by referring to Promega's PD-1/PD-L1 Blockade Bioassays system) were added at 5×10^5 per well at the same time, and cultured for 6 hours. The corresponding luciferase signal was detected by Bio-Glo™ (Promega, G7940) reagent. The EC50 of each compound to be tested was calculated through the non-linear regression of XLfit software.

T1 sequence (Q9NZQ7 19-238 limits assumed): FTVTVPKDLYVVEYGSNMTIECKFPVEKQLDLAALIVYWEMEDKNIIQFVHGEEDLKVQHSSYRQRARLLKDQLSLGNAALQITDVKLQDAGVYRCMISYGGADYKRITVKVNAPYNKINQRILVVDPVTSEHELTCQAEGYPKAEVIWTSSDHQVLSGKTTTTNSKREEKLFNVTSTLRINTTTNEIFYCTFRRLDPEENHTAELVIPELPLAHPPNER

| IC50 [1] [nM] | SMILES | EC50 [2] [nM] |
| --- | --- | --- |
| 1 | COc1cc(/C=C/c2cccc(-c3cccc(NC(=O)c4ccc(CN5CC[C@@H](O)C5)cn4)c3Cl)c2C)c(C(F)(F)F)cc1CN1CCCC[C@H]1C(=O)O [Z-82] | 29 |
| 1 | COc1cc(/C=C/c2cccc(-c3cccc(-c4nc5cc(CN6CC[C@@H](C(=O)O)C6)cc(C#N)c5o4)c3C)c2C)c(C(F)(F)F)cc1CN1CC[C@@H](O)C1 [Z-21, (R)-1-((7-cyano-2-(3′-((E)-4-(((R)-3-hydroxypyrrolidin-1-yl)methyl)-5-methoxy-2-(trifluoromethyl)styryl)-2,2′-dimethyl-[1,1′-biphenyl]-3-yl)benzo[d]oxazol-5-yl)methyl) pyrrolidine-3-carboxylic Acid] | 5 |
| < 1 | COC(=O)C[C@H](O)CNCc1cc(C(F)(F)F)c(/C=C/c2cccc(-c3cccc(NC(=O)c4cc(OC)c(CN5CC[C@@H](O)C5)cn4)c3C)c2C)cc1OC [Z-128] | 39 |
| 1 | COc1cc(C(=O)Nc2cccc(-c3cccc(/C=C/c4cc(OC)c(CN5CCC[C@H]5C(=O)O)cc4C(F)(F)F)c3C)c2C)ncc1CN1CC[C@@H](O)C1 [Z-115] | 31 |
| 1 | COc1cc(/C=C/c2cccc(-c3cccc(NC(=O)c4nc5c(n4C)CCN([C@H]4CC[C@H](O)CC4)C5)c3C)c2C)c(C(F)(F)F)cc1CN1CC[C@@H](C(=O)O)C1 [Z-132, (R)-1-(4-((E)-2-(3′-(5-((1r,4r)-4-hydroxycyclohexyl)-1-methyl-4,5,6,7-tetrahydro-1H-imidazo[4,5-c]pyridine-2-carboxamido)-2,2′-dimethyl-[1,1′-biphenyl]-3-yl)vinyl)-2-methoxy-5-(trifluoromethyl)benzyl)pyrrolidine-3-carboxylic Acid] | 168 |
| < 1 | COc1cc(/C=C/c2cccc(-c3cccc(NC(=O)c4ccc(CN5CC[C@@H](O)C5)cn4)c3C)c2C)c(C(F)(F)F)cc1CN1CC[C@H](C(=O)O)C1 [Z-97] | 2 |
| 1 | COc1cc(/C=C/c2ccnc(-c3cccc(-c4nc5cc(CN6CC[C@@H](O)C6)cc(C#N)c5o4)c3C)c2C#N)c(C(F)(F)F)cc1CN1CC[C@@H](C(=O)O)C1 [Z-49] | 78 |
| 1 | COc1cc(/C=C/c2cccc(-c3cccc(-c4nc5cc(CN6CC[C@@H](C(=O)O)C6)cc(C(N)=O)c5o4)c3C)c2C)c(C(F)(F)F)cc1CN1CC[C@@H](O)C1 [Z-27, (R)-1-((7-carbamoyl-2-(3′-((E)-4-(((R)-3-hydroxypyrrolidin-1-yl)methyl)-5-methoxy-2-(trifluoromethyl)styryl)-2,2′-dimethyl-[1,1′-biphenyl]-3-yl)benzo[d]oxazol-5-yl)methyl)pyrrolidine-3-carboxylic Acid] | 176 |
| < 1 | COc1cc(/C=C/c2cccc(-c3cccc(NC(=O)c4ccc(CN5CC[C@@H](O)C5)cn4)c3F)c2Cl)c(C(F)(F)F)cc1CN1CC[C@@H](C(=O)O)C1 [Z-96] | 10 |
| < 1 | COc1cc(/C=C/c2ccnc(-c3cccc(Nc4nccc5cc(CN6CC[C@@H](O)C6)cnc45)c3C)c2C#N)c(C(F)(F)F)cc1CN1CC[C@@H](C(=O)O)C1 [Z-14] | 208 |
| 1 | COc1cc(C(=O)Nc2cccc(-c3cccc(/C=C/c4cc(OC)c(CN5CC[C@@H](C(=O)O)C5)cc4C(F)(F)F)c3C)c2C)ncc1CN1CC[C@@H](O)C1 [Z-117] | 13 |
| 1 | Cc1cc(/C=C/c2cccc(-c3cccc(-c4nc5cc(CN6CC[C@@H](C(=O)O)C6)cc(C#N)c5o4)c3C)c2C)c(C(F)(F)F)cc1CN1CC[C@@H](O)C1 [Z-18, (R)-1-((7-cyano-2-(3′-((E)-4-(((R)-3-hydroxypyrrolidin-1-yl)methyl)-5-methyl-2-(trifluoromethyl)styryl)-2,2′-dimethyl-[1,1′-biphenyl]-3-yl)benzo[d]oxazol-5-yl)methyl)pyrrolidine-3-carboxylic Acid] | 142 |
| 1 | COc1cc(/C=C/c2cccc(-c3cccc(NC(=O)c4ccc(CN5CC[C@@H](O)C5)cn4)c3Cl)c2C)c(C(F)(F)F)cc1CN1CC[C@@H](C(=O)O)C1 [Z-80] | 36 |
| 1 | COc1cc(/C=C/c2cccc(-c3cccc(NC(=O)c4ccc(CN5CC[C@@H](O)C5)cn4)c3C)c2C)c(C(F)(F)F)cc1CN1CC[C@@H](C(=O)O)C1 [Z-84] | 25 |
| < 1 | COc1cc(/C=C/c2cccc(-c3cccc(NC(=O)c4ccc(CN5CC[C@@H](O)C5)cn4)c3Cl)c2F)c(C(F)(F)F)cc1CN1CC[C@@H](C(=O)O)C1 [Z-99] | 35 |
| 1 | COc1cc(C(=O)Nc2cccc(-c3cccc(/C=C/c4cc(CN5CC[C@@H](C(=O)O)C5)ccc4C(F)(F)F)c3C)c2C)ncc1CN1CC[C@@H](O)C1 [Z-124] | 109 |
| 1 | Cc1cc(/C=C/c2nccc(-c3cccc(NC(=O)c4ccc(CN5CC[C@@H](O)C5)cn4)c3Cl)c2C)c(Cl)cc1CN1CC[C@@H](C(=O)O)C1 [Z-76] | 361 |
| 1 | COc1cc(/C=C/c2cccc(-c3cccc(-c4ccc(CNC[C@@H]5CCC(=O)N5)c(OC)n4)c3C)c2C)c(C(F)(F)F)cc1CN1CC[C@@H](C(=O)O)C1 [Z-54, (R)-1-(2-methoxy-4-((E)-2-(3′-(6-methoxy-5-(((((S)-5-oxopyrrolidin-2-yl)methyl)amino)methyl)pyridin-2-yl)-2,2′-dimethyl-[1,1′-biphenyl]-3-yl)vinyl)-5-(trifluoromethyl)benzyl)pyrrolidine-3-carboxylic Acid] | 149 |
| 2 | COc1cc(/C=C/c2cccc(-c3cccc(-c4nc5cc(CN6CC[C@H](C(=O)O)C6)cc(C#N)c5o4)c3C)c2C)c(C(F)(F)F)cc1CN1CC[C@H](O)C1 [Z-30] | 104 |
| 1 | COc1cc(/C=C/c2cccc(-c3cccc(NC(=O)c4ccc(CN5CC[C@@H](O)C5)cn4)c3Cl)c2C)c(C(F)(F)F)cc1CNC[C@@H](O)CC(=O)O [Z-107] | 16 |
| 2 | COc1cc(/C=C/c2cccc(-c3cccc(Nc4nccc5cc(CN6CC[C@@H](O)C6)cnc45)c3C)c2C)c(C(F)(F)F)cc1CN1CC[C@@H](C(=O)O)C1 [Z-8] | 47 |
| 2 | COc1cc(/C=C/c2cccc(-c3cccc(-c4nc5cc(CN[C@@H](C)CO)cc(C#N)c5o4)c3C)c2C)c(C(F)(F)F)cc1CN1CCCC[C@H]1C(=O)O [Z-41, (S)-1-(4-((E)-2-(3′-(7-cyano-5-((((S)-1-hydroxypropan-2-yl)amino)methyl)benzo[d]oxazol-2-yl)-2,2′-dimethyl-[1,1′-biphenyl]-3-yl)vinyl)-2-methoxy-5-(trifluoromethyl)benzyl) piperidine-2-carboxylic Acid] | 109 |
| ≤ 1 | COc1cc(C(=O)Nc2cccc(-c3cccc(/C=C/c4cc(OC)c(CN5CC[C@@H](C(=O)O)C5)cc4C(F)(F)F)c3Cl)c2C)ncc1CN1CC[C@@H](O)C1 [Z-140] | 7 |
| 1 | COc1cc(/C=C/c2cccc(-c3cccc(NC(=O)c4ccc(CN5CC[C@@H](O)C5)cn4)c3C)c2C)c(C(F)(F)F)cc1CN1CCCC[C@H]1C(=O)O [Z-102] | 9 |
| 1 | COc1cc(/C=C/c2cccc(-c3cccc(NC(=O)c4ccc(CN5CC[C@@H](O)C5)cn4)c3C)c2C#N)c(C(F)(F)F)cc1CN1CC[C@@H](C(=O)O)C1 [Z-94] | 10 |
| 1 | Cc1cc(/C=C/c2nccc(-c3cccc(NC(=O)c4ccc(CNCCO)cn4)c3C)c2C#N)c(Cl)cc1CNCCO [Z-1, (E)-N-(3-(2-(2-chloro-4-(((2-hydroxyethyl)amino)methyl)-5-methylstyryl)-3-cyanopyridin-4-yl)-2-methylphenyl)-5-(((2-hydroxyethyl)amino)methyl)picolinamide] | 162 |
| 1 | Cc1cc(/C=C/c2cccc(-c3cccc(NC(=O)c4ccc(CN5CC[C@@H](O)C5)cn4)c3C)c2C)c(C2CC2)cc1CN1CC[C@@H](C(=O)O)C1 [Z-91] | 147 |
